Source: patent publication US20040229950A1, “Method and composition with conjugated linoleic acid esters” (priority 2002, published 2004)
Where “and” joins values, the source holds several entries; their conditions need not be identical. Equal entries are not always repeated.

Experiments:
Human platelets [1] = experiment: TXB2 formation by platelets treated 2 hours with CLA isomer/HSA; assay type: cell-based; details: 25 μM, 2 hours at 37° C.; for TXB2 formation Fold stimulation: mean ± SD, 4 experiments
Protocol: Human platelets were treated for 2 hours at 37° C. with either HSA complexed with 25 μM of the indicated CLA isomer or with HSA alone. After washing, the platelets were maintained at room temperature for 15 minutes. The supernatants were then removed, the lipid content extracted with chloroform/methanol and the residue, after TLC separation, assayed for TXB2 formation by EIA. The results shown in Table 2 were similar to those obtained with CLA-prelabeled HUVECs. […] Also shown in Table 2 is that the CLA content of the platelet lipids increased from 0.03% to 0.23% after platelet treatment with 9Z, 11Z-CLA/HSA and to 0.66% after 10E, 12Z-CLA/HSA.

[2] = tested on: human umbilical vein endothelial cells (HUVECs); experiment: Inhibition of HUVEC 6-ketoPGF1a (PGI2) production by CLA in free fatty acid form; assay type: cell-based; details: CLA in the free fatty acid form
Protocol: As a consequence, the patent disclosed the use of CLAs to inhibit platelet thromboxane formation or platelet aggregation. […] All of these studies relate to the use of conjugated linoleic acids in the free fatty acid form.
(§1) The following example illustrates the effect of CLA incorporation on 6-ketoPGF1a production from CLA-enriched HUVECs. Following the procedure described by Bordet (1990), IL-1β-treated HUVECs were first pre-enriched during an overnight incubation with human serum albumin (HSA) complexed with either 25 […] 9Z, 11Z-CLA/HSA, 25 μM 10E, 12Z-CLA/HSA or without added fatty acid (control). […] Insignificant differences in cell viabilities (as measured by LDH release) were observed between control cells and cells pretreated with HSA/CLA. After washing, the cells were incubated for 15 minutes, followed by removal of the supernatants, which were then assayed for 6-ketoPGF1a content by EIA. In four separate experiments, control HUVECs produced and released 42-1000 pg/ml of 6-ketoPGF1a.

Human platelets [3] = experiment: Release of endogenous AA from platelets prelabeled with CLA/HSA; assay type: cell-based
Protocol: (§2) The following example illustrates the effect of CLA incorporation into platelet lipids on stimulating the release of endogenous AA and increasing the formation of TXB2. Platelets were prelabeled with either HSA alone or with 25 μM 9Z, 11Z-CLA/HSA for 1 hour at 37° C. After washing, the platelets were incubated for 15 minutes at room temperature, followed by the removal of the supernatants. The supernatants were then assayed for free […] content and TXB2 production. […] When the results of these three experiments are averaged, platelets treated with 9Z, 11Z-CLA stimulated […] release 414±155% and enhanced TXB2 formation 180±30%.

IL-1β-treated HUVECs = experiment: 6-ketoPGF1a production from CLA-prelabeled HUVECs; assay type: cell-based, human; details: 25 μM; for HUVEC 6-ketoPGF1a formation fold-stimulation: overnight prelabeling, 15 minutes incubation, mean ± SD, 4 experiments; for range of fold increase in endogenous 6-ketoPGF1a formation: range over four separate experiments
Protocol: as §1

Human platelets [4] = experiment: TXB2 production by platelets pretreated 1 hour with fatty acid/HSA; assay type: cell-based
Protocol: as §2
To compare the stimulatory effect of 9Z, 11Z-CLA on platelet TXB2 formation with other fatty acids, platelets were pretreated for 1 hour with HSA (control), or HSA complexed with either 9Z, 11Z-CLA, 9E,11E-CLA, linoleic acid (LA) or stearic acid (SA). The comparative effects of 25 μM 9Z, 11Z-CLA-, 9E, 11E-CLA-, LA- or SA-treated platelets on platelet TXB2 production is shown is FIG. 1. The values are the mean ±SD.

[5] = experiment 1, 25 μM, 1 hour at 37° C.
[6] = 25 μM, 1 hour pretreatment, versus HSA control, Example 2

SMILES	TXB2 formation Fold stimulation (Human platelets [1])	inhibition of HUVEC 6-ketoPGF1a / prostacyclin production [2]	HUVEC 6-ketoPGF1a formation fold-stimulation (IL-1β-treated HUVECs)	range of fold increase in endogenous 6-ketoPGF1a formation (IL-1β-treated HUVECs)	stimulation of platelet TXB2 production (FIG. 1) (Human platelets [4]; [6])	other results
CCCCCCC=CC=CCCCCCCCC(=O)O [9Z, 11Z-CLA, 9,11-octadecadienoic acid]	2.3 fold and 2.3 ± 1.0 (4) fold	but not 9Z, 11Z-CLA isomer, was an effective inhibitor	8 fold	1.9-23 fold	4 fold	activity at 25 µM (Human platelets [3]; Homo sapiens, Platelet, 1 hour, mean ± S.D. of three experiments, read-out: AA release, % of control, summary of experiments #1-3): 414 ± 155%; AA release (Human platelets [3]; [5]): 27 µg/mL; HUVEC 6-ketoPGF1a formation fold-stimulation (IL-1β-treated HUVECs; listed as 9Z, 11Z): 8.1 ± 10 fold; fold increase in TXB2 formation (Human platelets [4]; 25 μM prelabeling, relative to HSA/platelet controls): 2-4 fold and 2 fold; TXB2 Control (%) (Human platelets [4]; 25 μM, 1 hour at 37° C., single experiments No. 1-3, relative to HSA alone, listed as HSA + ZZ): 146% and 192% and 203%; activity at 25 µM (Human platelets [4]; Homo sapiens, Platelet, 25 μM, 1 hour, mean ± S.D. of three experiments, read-out: TXB2 formation, % of control, summary of experiments #1-3): 180 ± 30%; TXB2 formation (Human platelets [4]; [5]): 0.36 ng/mL
CCCCCCC=CC=CCCCCCCCC(=O)O [9E, 11E-CLA, 9,11-octadecadienoic acid]	–	–	–	–	–	inhibition at 25 µM (Human platelets [4]; Homo sapiens, Platelet, 25 μM, 1 hour pretreatment, versus HSA control, Example 2, read-out: inhibition of TXB2 formation (FIG. 1)): 37%
CCCCCCCCCCCCCCCCCC(=O)O [SA, stearic acid, reference compound]	–	–	–	–	did not show an appreciable effect	–
CCCCC/C=C\C/C=C\CCCCCCCC(=O)O [LA, linoleic acid]	–	–	–	–	did not show an appreciable effect	–
CCCCCC=CC=CCCCCCCCCC(=O)O [10E, 12Z-CLA, 10,12-octadecadienoic acid]	1.3 ± 0.41 (4) fold	effective inhibitor	3 fold	1.5-7.5 fold	–	increase in formation and release of TXB2 (Human platelets [1]): 30%; HUVEC 6-ketoPGF1a formation fold-stimulation (IL-1β-treated HUVECs; listed as 10E, 12Z): 3.5 ± 2.7 fold; HUVEC 6-ketoPGF1a formation fold-stimulation (IL-1β-treated HUVECs; listed as 10E, 12Z isomer): not quite half as effective
